Target: T1, T1R2/T1R3 taste receptor (Homo sapiens, UniProt Q8TE23)
T1 sequence (Q8TE23 20-839): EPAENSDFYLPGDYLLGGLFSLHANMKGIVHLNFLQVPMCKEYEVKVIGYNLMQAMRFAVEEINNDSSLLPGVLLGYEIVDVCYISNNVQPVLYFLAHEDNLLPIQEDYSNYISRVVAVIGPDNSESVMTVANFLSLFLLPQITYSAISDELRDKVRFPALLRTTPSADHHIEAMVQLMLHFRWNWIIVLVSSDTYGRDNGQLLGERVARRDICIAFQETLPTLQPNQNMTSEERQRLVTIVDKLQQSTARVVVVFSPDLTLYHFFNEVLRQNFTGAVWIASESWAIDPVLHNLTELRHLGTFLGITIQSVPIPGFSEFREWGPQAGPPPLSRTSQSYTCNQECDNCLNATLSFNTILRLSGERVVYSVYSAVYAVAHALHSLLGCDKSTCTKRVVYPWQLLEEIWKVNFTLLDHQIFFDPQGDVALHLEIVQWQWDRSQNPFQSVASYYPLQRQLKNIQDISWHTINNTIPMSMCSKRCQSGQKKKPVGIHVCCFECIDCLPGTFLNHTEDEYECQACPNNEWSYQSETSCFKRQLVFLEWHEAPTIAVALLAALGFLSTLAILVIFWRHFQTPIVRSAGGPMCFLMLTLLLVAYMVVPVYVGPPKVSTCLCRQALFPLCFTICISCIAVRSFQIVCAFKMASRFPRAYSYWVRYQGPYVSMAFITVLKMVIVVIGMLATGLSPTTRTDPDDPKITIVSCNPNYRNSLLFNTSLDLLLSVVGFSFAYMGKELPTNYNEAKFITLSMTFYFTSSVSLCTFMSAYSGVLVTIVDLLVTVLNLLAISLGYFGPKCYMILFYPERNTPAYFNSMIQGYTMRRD
T1 sequence (Q7RTX0 21-852 partner): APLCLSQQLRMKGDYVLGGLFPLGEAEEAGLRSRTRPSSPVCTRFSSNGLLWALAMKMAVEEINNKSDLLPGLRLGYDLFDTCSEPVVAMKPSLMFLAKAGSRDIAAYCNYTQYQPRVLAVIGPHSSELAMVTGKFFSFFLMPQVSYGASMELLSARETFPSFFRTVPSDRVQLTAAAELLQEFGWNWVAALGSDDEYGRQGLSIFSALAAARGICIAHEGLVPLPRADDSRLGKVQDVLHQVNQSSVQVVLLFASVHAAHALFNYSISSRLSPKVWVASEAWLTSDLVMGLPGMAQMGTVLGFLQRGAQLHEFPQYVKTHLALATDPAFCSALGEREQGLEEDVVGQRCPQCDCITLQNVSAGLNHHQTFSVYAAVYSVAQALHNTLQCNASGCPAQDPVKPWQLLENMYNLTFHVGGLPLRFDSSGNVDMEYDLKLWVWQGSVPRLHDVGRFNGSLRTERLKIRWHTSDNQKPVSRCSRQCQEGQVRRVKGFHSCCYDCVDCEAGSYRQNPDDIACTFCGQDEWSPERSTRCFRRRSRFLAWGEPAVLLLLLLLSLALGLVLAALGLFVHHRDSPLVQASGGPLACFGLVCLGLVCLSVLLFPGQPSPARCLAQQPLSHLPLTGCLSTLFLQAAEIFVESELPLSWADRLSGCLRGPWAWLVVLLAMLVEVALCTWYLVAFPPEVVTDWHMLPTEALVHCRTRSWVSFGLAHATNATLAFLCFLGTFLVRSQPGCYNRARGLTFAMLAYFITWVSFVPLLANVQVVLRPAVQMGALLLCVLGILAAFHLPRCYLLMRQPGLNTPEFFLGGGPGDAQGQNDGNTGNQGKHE
Experiment: Receptor-based assay: sweetener EC50 alone and with test compound (enhancement ratio)
Type: cell-based
Settings: for Fructose Enhancement EC50 Ratio: sweetener fructose; for Sucralose Enhancement EC50 Ratio: sweetener sucralose; for Sucrose Enhancement EC50 Ratio: sweetener sucrose
How it was run: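 Sucrose, sucralose or fructose EC50 measured on human T1R2/T1R3, alone and with 3, 10 or 50 μM test compound. Enhancement is the EC50 ratio without/with compound, binned A >20, B 10-20, C >1 to <10.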

SMILES: NC1=NS(=O)(=O)Nc2cccc(OC[C@H]3CCCN(c4ccccn4)C3)c21 [Compound 104]
- Fructose Enhancement EC50 Ratio (10 μM test compound): C (A “C” value indicates an enhancement ratio greater than 1 and less than 10)
- Sucralose Enhancement EC50 Ratio (10 μM test compound): A (An “A” value indicates an enhancement ratio of greater than 20)
- Sucralose Enhancement EC50 Ratio (50 μM test compound): A (An “A” value indicates an enhancement ratio of greater than 20)
- Sucrose Enhancement EC50 Ratio (3 μM test compound): C (A “C” value indicates an enhancement ratio greater than 1 and less than 10)
- Sucrose Enhancement EC50 Ratio (10 μM test compound): C (A “C” value indicates an enhancement ratio greater than 1 and less than 10)
- Sucrose Enhancement EC50 Ratio (50 μM test compound): C (A “C” value indicates an enhancement ratio greater than 1 and less than 10)

SMILES: COCCNC(=O)c1cccc(N2CCC[C@H](COc3cccc4c3C(N)=NS(=O)(=O)N4)C2)n1 [Compound 405]
- Fructose Enhancement EC50 Ratio (10 μM test compound): C (A “C” value indicates an enhancement ratio greater than 1 and less than 10)
- Sucralose Enhancement EC50 Ratio (10 μM test compound): B (A “B” value indicates an enhancement ratio from 10 to 20)
- Sucrose Enhancement EC50 Ratio (3 μM test compound): C (A “C” value indicates an enhancement ratio greater than 1 and less than 10)
- Sucrose Enhancement EC50 Ratio (10 μM test compound): C (A “C” value indicates an enhancement ratio greater than 1 and less than 10)

SMILES: NC1=NS(=O)(=O)Nc2cccc(OC[C@H]3CCCN(c4ccc(C(=O)NC5CCCCC5)cn4)C3)c21 [Compound 509]
- Fructose Enhancement EC50 Ratio (50 μM test compound): C (A “C” value indicates an enhancement ratio greater than 1 and less than 10)
- Sucralose Enhancement EC50 Ratio (10 μM test compound): B (A “B” value indicates an enhancement ratio from 10 to 20)
- Sucralose Enhancement EC50 Ratio (50 μM test compound): A (An “A” value indicates an enhancement ratio of greater than 20)
- Sucrose Enhancement EC50 Ratio (3 μM test compound): C (A “C” value indicates an enhancement ratio greater than 1 and less than 10)
- Sucrose Enhancement EC50 Ratio (10 μM test compound): C (A “C” value indicates an enhancement ratio greater than 1 and less than 10)
- Sucrose Enhancement EC50 Ratio (50 μM test compound): C (A “C” value indicates an enhancement ratio greater than 1 and less than 10)

SMILES: CCCNC(=O)c1cccc(N2CCC[C@H](COc3cccc4c3C(N)=NS(=O)(=O)N4)C2)n1 [Compound 403]
- Fructose Enhancement EC50 Ratio (10 μM test compound): C (A “C” value indicates an enhancement ratio greater than 1 and less than 10)
- Sucralose Enhancement EC50 Ratio (10 μM test compound): A (An “A” value indicates an enhancement ratio of greater than 20)
- Sucralose Enhancement EC50 Ratio (50 μM test compound): A (An “A” value indicates an enhancement ratio of greater than 20)
- Sucrose Enhancement EC50 Ratio (3 μM test compound): C (A “C” value indicates an enhancement ratio greater than 1 and less than 10)
- Sucrose Enhancement EC50 Ratio (10 μM test compound): C (A “C” value indicates an enhancement ratio greater than 1 and less than 10)
- Sucrose Enhancement EC50 Ratio (50 μM test compound): C (A “C” value indicates an enhancement ratio greater than 1 and less than 10)

SMILES: CNC(=O)c1ccc(N2CCC[C@H](COc3cccc4c3C(N)=NS(=O)(=O)N4)C2)nc1 [Compound 500]
- Sucralose Enhancement EC50 Ratio (10 μM test compound): A (An “A” value indicates an enhancement ratio of greater than 20)
- Sucralose Enhancement EC50 Ratio (50 μM test compound): A (An “A” value indicates an enhancement ratio of greater than 20)
- Sucrose Enhancement EC50 Ratio (3 μM test compound): C (A “C” value indicates an enhancement ratio greater than 1 and less than 10)
- Sucrose Enhancement EC50 Ratio (10 μM test compound): C (A “C” value indicates an enhancement ratio greater than 1 and less than 10)
- Sucrose Enhancement EC50 Ratio (50 μM test compound): C (A “C” value indicates an enhancement ratio greater than 1 and less than 10)

SMILES: CCCNC(=O)c1ccc(N2CCC[C@H](COc3cccc4c3C(N)=NS(=O)(=O)N4)C2)nc1 [Compound 502]
- Fructose Enhancement EC50 Ratio (10 μM test compound): C (A “C” value indicates an enhancement ratio greater than 1 and less than 10)
- Fructose Enhancement EC50 Ratio (50 μM test compound): C (A “C” value indicates an enhancement ratio greater than 1 and less than 10)
- Sucralose Enhancement EC50 Ratio (10 μM test compound): A (An “A” value indicates an enhancement ratio of greater than 20)
- Sucralose Enhancement EC50 Ratio (50 μM test compound): A (An “A” value indicates an enhancement ratio of greater than 20)
- Sucrose Enhancement EC50 Ratio (3 μM test compound): C (A “C” value indicates an enhancement ratio greater than 1 and less than 10)
- Sucrose Enhancement EC50 Ratio (10 μM test compound): C (A “C” value indicates an enhancement ratio greater than 1 and less than 10)
- Sucrose Enhancement EC50 Ratio (50 μM test compound): C (A “C” value indicates an enhancement ratio greater than 1 and less than 10)

SMILES: Cc1cc(C(=O)O)nc(N2CCC[C@H](COc3cccc4c3C(N)=NS(=O)(=O)N4)C2)n1 [Compound 307]
- Fructose Enhancement EC50 Ratio (10 μM test compound): C (A “C” value indicates an enhancement ratio greater than 1 and less than 10)
- Fructose Enhancement EC50 Ratio (50 μM test compound): C (A “C” value indicates an enhancement ratio greater than 1 and less than 10)
- Sucralose Enhancement EC50 Ratio (10 μM test compound): A (An “A” value indicates an enhancement ratio of greater than 20)
- Sucralose Enhancement EC50 Ratio (50 μM test compound): A (An “A” value indicates an enhancement ratio of greater than 20)
- Sucrose Enhancement EC50 Ratio (3 μM test compound): C (A “C” value indicates an enhancement ratio greater than 1 and less than 10)
- Sucrose Enhancement EC50 Ratio (10 μM test compound): C (A “C” value indicates an enhancement ratio greater than 1 and less than 10)
- Sucrose Enhancement EC50 Ratio (50 μM test compound): C (A “C” value indicates an enhancement ratio greater than 1 and less than 10)

SMILES: NC1=NS(=O)(=O)Nc2cccc(OC[C@H]3CCCN(c4ncccn4)C3)c21 [Compound 105]
- Fructose Enhancement EC50 Ratio (10 μM test compound): C (A “C” value indicates an enhancement ratio greater than 1 and less than 10)
- Fructose Enhancement EC50 Ratio (50 μM test compound): C (A “C” value indicates an enhancement ratio greater than 1 and less than 10)
- Sucralose Enhancement EC50 Ratio (10 μM test compound): A (An “A” value indicates an enhancement ratio of greater than 20)
- Sucralose Enhancement EC50 Ratio (50 μM test compound): A (An “A” value indicates an enhancement ratio of greater than 20)
- Sucrose Enhancement EC50 Ratio (3 μM test compound): C (A “C” value indicates an enhancement ratio greater than 1 and less than 10)
- Sucrose Enhancement EC50 Ratio (10 μM test compound): C (A “C” value indicates an enhancement ratio greater than 1 and less than 10)
- Sucrose Enhancement EC50 Ratio (50 μM test compound): C (A “C” value indicates an enhancement ratio greater than 1 and less than 10)

SMILES: COCCNC(=O)c1ccnc(N2CCC[C@H](COc3cccc4c3C(N)=NS(=O)(=O)N4)C2)c1 [Compound 604]
- Fructose Enhancement EC50 Ratio (50 μM test compound): C (A “C” value indicates an enhancement ratio greater than 1 and less than 10)
- Sucralose Enhancement EC50 Ratio (10 μM test compound): A (An “A” value indicates an enhancement ratio of greater than 20)
- Sucrose Enhancement EC50 Ratio (50 μM test compound): B (A “B” value indicates an enhancement ratio from 10 to 20)

SMILES: NC1=NS(=O)(=O)Nc2cccc(OC[C@H]3CCCN(c4cccc(C(=O)N5CCCC5)n4)C3)c21 [Compound 412]
- Fructose Enhancement EC50 Ratio (10 μM test compound): C (A “C” value indicates an enhancement ratio greater than 1 and less than 10)
- Fructose Enhancement EC50 Ratio (50 μM test compound): C (A “C” value indicates an enhancement ratio greater than 1 and less than 10)
- Sucralose Enhancement EC50 Ratio (10 μM test compound): A (An “A” value indicates an enhancement ratio of greater than 20)
- Sucralose Enhancement EC50 Ratio (50 μM test compound): A (An “A” value indicates an enhancement ratio of greater than 20)
- Sucrose Enhancement EC50 Ratio (3 μM test compound): C (A “C” value indicates an enhancement ratio greater than 1 and less than 10)
- Sucrose Enhancement EC50 Ratio (10 μM test compound): C (A “C” value indicates an enhancement ratio greater than 1 and less than 10)
- Sucrose Enhancement EC50 Ratio (50 μM test compound): B (A “B” value indicates an enhancement ratio from 10 to 20)

SMILES: NC1=NS(=O)(=O)Nc2cccc(OC[C@H]3CCCN(c4cc(C(=O)N5CCOCC5)ccn4)C3)c21 [Compound 614]
- Fructose Enhancement EC50 Ratio (50 μM test compound): C (A “C” value indicates an enhancement ratio greater than 1 and less than 10)
- Sucralose Enhancement EC50 Ratio (10 μM test compound): A (An “A” value indicates an enhancement ratio of greater than 20)
- Sucralose Enhancement EC50 Ratio (50 μM test compound): A (An “A” value indicates an enhancement ratio of greater than 20)
- Sucrose Enhancement EC50 Ratio (3 μM test compound): C (A “C” value indicates an enhancement ratio greater than 1 and less than 10)
- Sucrose Enhancement EC50 Ratio (50 μM test compound): A (An “A” value indicates an enhancement ratio of greater than 20)

Reference: patent publication US11945813B2, “5-substituted 4-amino-1H-benzo[c][1,2,6]thiadiazine 2,2-dioxides and formulations and uses thereof” (Firmenich Incorporated, priority 2018, dated 2024)
